Reference: patent US12636368B2, “Ionizable lipids for nucleic acid delivery” (Global Life Sciences Solutions Canada ULC, priority 2019, dated 2026)
Read-outs that look alike come from different tables or passages of the source.

Columns and labels:
[1] = TNS assay, surface pKa of lipid nanoparticles; assay type: physicochemical
Procedure, shortened: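 Empty LNPs containing the ionizable lipid (LM02 composition, 0.781 mM total lipid before mixing) were combined with TNS in 10 mM HEPES, 10 mM MES, 10 mM NH4OAc, 130 mM NaCl buffers at pH 3–9 in 0.5 steps. Fluorescence was read at room temperature (ex 321/em 445 nm); pKa was taken as the pH of half-maximal intensity from a sigmoidal fit.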

[2] = test system: isolated primary human T cells; assay: GFP mRNA-LNP transfection of primary human T cells, flow cytometry; assay type: cell-based; settings: for protein expression (GFP MFI) compared with MC3: FIG. 5, CT10, N/P 8, 500 ng mRNA per 125,000 cells, 3 days after activation, 48 h; for amount of protein produced (MFI) in human T cells compared with MC3: summary
Description: Reagents were from Stemcell Technologies unless otherwise stated. Tcells were isolated from a single donor. At 48 h following lipid particle mRNA exposure, the treated T cells were harvested by transferring the cell suspensions to pre-labeled 1.5 mL tubes and centrifuged 300×g at 4 degrees C. for 10 minutes. Supernatant was removed and the pellet resuspended in PBS. An amount of 0.5 ul of BD Horizon™ Fixable Viability Stain 575V™ (BD Biosciences), was added, and the mixture incubated in the dark for 10 minutes at RT. This stain binds to amines.
The cells were centrifuged again as before, then washed twice with 1 mL of stain buffer (BSA, BD Pharminigen), and the washed pellet was diluted in 100 μl BSA. The following antibodies were added to each tube of treated cells in 2 μl volumes: CD25, CD8, CD4, (PerCP-Cy™ 5.5 Mouse Anti Human CD25, BV786 Mouse Anti-Human CD8 Clone RPA-T8, APC-Cy™7 Mouse Anti-Human CD4 Clone SK3 (all from BD Pharmingen) with the exception of the controls: in the eGFP only sample and viability control, no antibody was added. In the single stain compensation tubes, only one antibody per tube was added.
The tubes were incubated at 4 degrees C. for 30 min, whereupon […] of stain buffer was added, and the cells were centrifuged again. Cells were washed once with 1 mL of stain buffer and spun down again as in step one. Cell pellets were resuspended in 1 mL of stain buffer and added to pre-labeled flow tubes with cell strainer caps (Corning Falcon). […]
GFP MFI was measured by flow cytometry 48 hours after LNP addition. T cells were isolated from whole blood using a negative isolation procedure (EasySep™ Human T Cell Isolation Kit, Stemcell Technologies). T cells were dosed with mRNA-LNPs 3 days after activation with 500 ng of encapsulated mRNA per 125,000 cells. The LNP were CT10 compositions with an N/P of 8. Transfection efficiency (upper graph) and MFI (lower graph) were measured by flow cytometry 48 h after LNP addition.

[3] = test system: isolated primary human T cells; assay: CD19 CAR expression in primary human T cells by mRNA-LNPs; assay type: cell-based; settings: FIG. 11; CT10, N/P 8, 48 h
Description: MRNA containing IL with CT10 composition at N/P 8 was assayed after in vitro exposure. The CAR vector pcDNA3.1 anti-CD19-h(BB Lambda)-EGFP-2nd-CAR (T7 Mut) 7661 bp was purchased from Creative BioLabs, NY, USA.
T cells were isolated from whole blood using a negative isolation procedure and T cell activation, and expansion was carried out by triple activation in ImmunoCult™ Human T Cell Expansion Media as described supra.

human T cells = assay: eGFP ELISA after eGFP mRNA LNP treatment of human T cells; assay type: cell-based; settings: FIG. 3; CT10, N/P 10, 10 days post-activation, 48 hours
Description: Reagents were acquired from Abcam, Cambridge, UK unless otherwise stated. […] The assay was performed as directed by the eGFP SimpleStep ELISA® Kit protocol. Briefly; frozen human T cells, previously isolated from fresh human whole blood using a negative selection protocol, were thawed and activated using a triple activator. […] After 48 hours of treatment with mRNA LNPs the T cells were harvested and lysed for total eGFP content.
In order to expose the isolated and activated T cells (Day 0) to the formulated mRNA, 2 ug of CleanCap™ eGFP (Trilink Biotechnologies, San Diego, CA) mRNA-containing LNP was added to 500,000 T cells in 1 mL of complete T cell media, with 1 ug/mL of Recombinant Human ApoE4 (“ApoE”) (Peprotech Inc., Montreal, Canada).
Frozen human T cells, previously isolated from fresh human whole blood using a negative selection protocol, were thawed and activated using a triple activator. At 10 days post-activation, T cells were dosed with CT10 mRNA LNPs LNP comprising DLin-MC3-DMA, PNI 76, PNI 119, PNI 120, PNI 121, and PNI 122 encoding eGFP at 2 pg mRNA per 500,000 cells and N/P 10. Protein expression was measured after 48 hours by eGFP ELISA.

primary human T cells = assay: EPO ELISA after EPO mRNA LNP treatment of primary human T cells; assay type: cell-based
Description: Reagents were acquired from Quantikine, Minneapolis, MN. The assay was performed as directed on the Quantikine® IVD® ELISA Human Erythropoietin Immunoassay protocol. REF DEP00 Package Insert. Briefly; primary human T cells were isolated from fresh whole blood using a negative selection protocol and activated using a triple activator. Seven days post-activation, T cells were dosed with mRNA LNPs encoding EPO at 2 pg mRNA per 500,000 cells and N/P 10. Quantikine® Human Serum Controls were used. After 48 hours of treatment with mRNA LNPs the T cells were harvested and lysed for cytosolic EPO and media supernatant was sampled for secreted EPO. Table 5 includes the data of FIG. 6 as well as the fold increase of EPO for PNI 76 and 121 versus MC3.

[4] = Table 1, formulated lipid nanoparticles, TNS assay, read-out: Exp. pKa

| SMILES | pKa [1, 4] | pKa ([1]; Table 8, read-out: Exp.pKa) | amount of protein produced (MFIs) compared with MC3 [2] | protein expression (GFP MFI) compared with MC3 [2] | amount of protein produced (MFI) in human T cells compared with MC3 [2] | CD19 CAR expression compared with PBS [3] | pKa ([1]; Table 5, read-out: pKa Exp.) | transfection efficiency compared with MC3 ([2]; FIG. 1, eGFP mRNA LNP, CT10, N/P 10, 48 hours after treatment) | transfection efficiency compared with MC3 in various donors ([2]; FIG. 2, six donors, treated 7 days post activation, 48 hours) | viability of T cells compared to untreated cells ([2]; six-donor experiment, not shown) | eGFP expression by eGFP ELISA compared with MC3 (human T cells) | EPO expression compared with MC3 (primary human T cells; FIG. 6, N/P 10, 48 hours) | EPO Fold Change Relative to MC3 (primary human T cells; Table 5) | EPO concentration (mIU/mL) (primary human T cells; Table 5, EPO mRNA LNPs, 2 pg mRNA per 500,000 cells, N/P 10, 48 hours) |
| --- | --- | --- | --- | --- | --- | --- | --- | --- | --- | --- | --- | --- | --- | --- |
| CCCCC/C=C\C/C=C\CCCCCCCC(=O)O[C@@H]1[C@@H](OC(=O)CCCCCCC/C=C\C/C=C\CCCCC)CO[C@@H]1COC(=O)C1(C)CCN(C)C1 (mixture of isomers) [PNI 329] | 5.88 | 5.88 | better than MC3 | higher levels of protein expression than MC3 | better than MC3 | greater than PBS | – | – | – | – | – | – | – | – |
| CCCCC/C=C\C/C=C\CCCCCCCC(=O)O[C@@H]1[C@@H](OC(=O)CCCCCCC/C=C\C/C=C\CCCCC)CO[C@@H]1COC(=O)CCCN(C)C (racemic) [PNI 121] | 6.83 | 6.8 | – | – | better than MC3 | – | 6.83 | greater than MC3 | greater than those containing clinically validated MC3 | unaffected | greater than that of MC3 | higher than those containing MC3 | 1.86 | 1009.0 |
| CCCCC/C=C\C/C=C\CCCCCCCC(=O)O[C@@H]1[C@@H](OC(=O)CCCCCCC/C=C\C/C=C\CCCCC)CO[C@@H]1COC(=O)C1CCN(C)C1 (mixture of isomers) [PNI 328] | 6.09 | 6.09 | – | higher levels of protein expression than MC3 | better than MC3 | greater than PBS | – | – | – | – | – | – | – | – |
| CCCCC/C=C\C/C=C\CCCCCCCC(=O)O[C@@H]1[C@@H](OC(=O)CCCCCCC/C=C\C/C=C\CCCCC)CO[C@@H]1COC(=O)CCCN1CCCC1 (racemic) [PNI 539] | 6.6 | 6.6 | – | – | – | – | – | – | – | – | – | – | – | – |
